According to US20240343757A1, “PROCESS FOR THE PREPARATION OF BUDESONIDE 21-PHOSPHATE” (GENETIC S.P.A., priority 2021, published 2024):

What was measured:
[1] = background statement; cited from earlier work
[2] = background statement; cited from earlier work; remark: listed apart in the source
[3] = Stability in aqueous solution at the concentration of use, room temperature; format: physicochemical; conditions: concentration of use 0.25 mg ml-4.0 mg ml
Procedure: At the concentration of use (0.25 mg ml-4.0 mg ml), it is rapidly soluble and remains stable at room temperature for long periods of time (12 months) without yellowing or precipitating.

Solubility in water = format: physicochemical
Text: 55, no. 1, pp. 578-582] at physiological pH in the intestinal region.
For this reason, hydroalcoholic solutions are usually prepared dissolving an adequate amount of active substance in solubilizers such as water-soluble alcohols. However, the so prepared solutions have low stability because large amounts of budesonide are decomposed within a short time. Moreover, budesonide formulations have been prepared until now in the form of aqueous suspensions in which the solid phase tends in time to deposit onto the bottom of the container, thus requiring chemical additives or vigorous stirring. These are the reasons that make budesonide not suitable to be delivered by an electric nebulizer.
Budesonide 21-phosphate disodium salt has a much higher water solubility than Budesonide and Budesonide 21-phosphate.

[4] = ICH stability testing of budesonide 21-phosphate disodium salt (drug substance); format: physicochemical; conditions: for assay content by HPLC: specification 95.0-105.0%; for unknown impurities: specification ≤0.1%; for known impurities: specification ≤0.2%
Procedure: Purity was assessed through the HPLC method of the European Pharmacopoeia 1075-Budesonide-related substance. […]

[5] = 40° C. and 75% RH (accelerated), Time 0
[6] = 40° C. and 75% RH (accelerated), Time 3 m
[7] = 40° C. and 75% RH (accelerated), Time 6 m

Question: With `CCCC1OC2CC3C4CCC5=CC(=O)C=CC5(C)C4C(O)CC3(C)C2(C(=O)CO)O1` (stereo not drawn) [Budesonide, 1β,21-dihydroxy-16α, 17α-(butylidenebis(oxy)) pregna-1,4-diene-3,20-dione] as the molecule, how does the “solubility in alcohols” value [1] read?
Answer: The value was “readily soluble in alcohols”.

Question: What about the “solubility in water” value [2] of the same molecule?
Answer: The value was “virtually insoluble in water”.

Question: What does the source list for Budesonide 21-phosphate disodium salt?
Answer: period stable in solution without yellowing or precipitating [3]: 12 months; water solubility (Solubility in water): 110 mg/mL; water solubility class (Solubility in water; freely soluble = 100-1000 mg/mL): freely soluble in water; assay content by HPLC ([4]; 25° C. and 60% RH, Time 0): 98.22%; unknown impurities ([4]; 25° C. and 60% RH, Time 0): 0.05%; known impurities ([4]; 25° C. and 60% RH, Time 0): 0.14%; assay content by HPLC ([4]; 25° C. and 60% RH, Time 3 m): 98.10%; unknown impurities ([4]; 25° C. and 60% RH, Time 3 m): 0.05%; known impurities ([4]; 25° C. and 60% RH, Time 3 m): 0.14%; assay content by HPLC ([4]; 25° C. and 60% RH, Time 6 m): 98.08%; unknown impurities ([4]; 25° C. and 60% RH, Time 6 m): 0.05%; known impurities ([4]; 25° C. and 60% RH, Time 6 m): 0.14%; assay content by HPLC ([4]; 25° C. and 60% RH, Time 9 m): 97.85%; unknown impurities ([4]; 25° C. and 60% RH, Time 9 m): 0.08%; known impurities ([4]; 25° C. and 60% RH, Time 9 m): 0.15%; assay content by HPLC ([4]; 25° C. and 60% RH, Time 12 m): 97.45%; unknown impurities ([4]; 25° C. and 60% RH, Time 12 m): 0.08%; known impurities ([4]; 25° C. and 60% RH, Time 12 m): 0.15%; assay content by HPLC ([4]; 30° C. and 65% RH, Time 0): 98.22%; unknown impurities ([4]; 30° C. and 65% RH, Time 0): 0.05%; known impurities ([4]; 30° C. and 65% RH, Time 0): 0.14%; assay content by HPLC ([4]; 30° C. and 65% RH, Time 3 m): 97.50%; unknown impurities ([4]; 30° C. and 65% RH, Time 3 m): 0.15%; known impurities ([4]; 30° C. and 65% RH, Time 3 m): 0.20%; assay content by HPLC ([4]; 30° C. and 65% RH, Time 6 m): 97.28%; unknown impurities ([4]; 30° C. and 65% RH, Time 6 m): 0.15%; known impurities ([4]; 30° C. and 65% RH, Time 6 m): 0.25%; assay content by HPLC ([4]; 30° C. and 65% RH, Time 9 m): 97.00%; unknown impurities ([4]; 30° C. and 65% RH, Time 9 m): 0.40%; known impurities ([4]; 30° C. and 65% RH, Time 9 m): 0.25%; assay content by HPLC ([4]; 30° C. and 65% RH, Time 12 m): 94.55%; unknown impurities ([4]; 30° C. and 65% RH, Time 12 m): 0.40%; known impurities ([4]; 30° C. and 65% RH, Time 12 m): 0.30%; assay content by HPLC [4, 5]: 98.22%; unknown impurities [4, 5]: <0.05%; known impurities [4, 5]: 0.14%; assay content by HPLC [4, 6]: 96.50%; unknown impurities [4, 6]: 2.45%; known impurities [4, 6]: 0.30%; assay content by HPLC [4, 7]: 93.28%; unknown impurities [4, 7]: 2.80%; known impurities [4, 7]: 0.45%
